Reference: PMC11116414, “Impact of secretin receptor homo-dimerization on natural ligand binding” (Nature Communications, 2024)
No end group written: not given here.

Test system: cysteine-containing SecR(G264A,I268A) constructs
Assay: Cysteine trapping with SecR(G264A,I268A) cysteine constructs, intact COS-1 cells
Format: binding, human
Details: for Intraloop labeling / Overall labeling: mean ± S.E.M.; for cysteine trapping in ECL3, in words: WT (earlier work) and non-dimerizing SecR
Description: In short, 15 µg of each peptide were incubated with 1 mCi of Na^125I for 15 s in borate buffer (pH 9.0) using solid-state N-chlorobenzene sulfonamide (iodination beads), and radioactive peptide products were separated and purified using reversed-phase HPLC, to yield a mono-iodinated peak with a specific radioactivity of 2000 Ci/mmol.
Modified secretin receptor constructs were prepared by mutagenesis of human SecR(G264A,I268A) by introducing cysteine residues to replace each natural residue in the N-terminal stalk region, (extracellular loop 1) ECL1, ECL2, and ECL3 regions of the receptor[21]. Mutagenesis was performed using the QuikChange site-directed mutagenesis kit from Stratagene (La Jolla, CA), with the products verified by direct DNA sequencing.
Cysteine trapping is a technique in which cysteine residues incorporated into distinct positions within a peptide ligand and within its receptor are allowed to form disulfide bonds when two free cysteines are in proximity to each other with necessary distance and geometry. As noted above, this was performed with secretin peptides incorporating cysteines in positions 2, 5, 6 and 7[20],[21], and with a series of SecR mutants incorporating cysteines in all extracellular domains (75 distinct constructs in a TM4 mutant non-dimerizing SecR background). COS-1 cells were grown to approximate 85% confluence in 24-well tissue culture plates, and transfected with cysteine mutant receptor constructs using the PEI method. Assays were started by washing the cells with DMEM containing 5% Fetal Clone II before being incubated with 200 μl radiolabeled cysteine-containing probes (approximately 100,000 cpm per well) for 1.5 h at room temperature. The assays were terminated by washing the cells with ice-cold PBS, pH 7.4, and mixing with 60 µl SDS Laemmli sample buffer not containing dithiothreitol (DTT). Lysates were run on 10% SDS-polyacrylamide gels. Gels were then dried, and bands of interest were visualized by autoradiography, and specific bands were identified, and intensities quantified using ImageJ. Sites having labeling above background were determined using one-way ANOVA with Dunnett’s post-test, with P < 0.001 considered to be significant. The apparent molecular weights of the receptor bands were determined by interpolation with the mobility of the appropriate ProSieve protein markers.

[1] = A292C, ECL2, n = 3-5, Cys5 significant (P < 0.0001)
[2] = F279C, ECL2, % of highest-labeled residue across all constructs, n = 4 (Cys2), 5 (Cys5, Cys6), 3 (Cys7)
[3] = L374C, ECL3, n = 3-5, Cys5, Cys6, Cys7 significant (P < 0.001)
[4] = M366C, ECL3, n = 3-5, Cys5 significant (P < 0.0001)
[5] = W296C, ECL2, n = 3-5, Cys6 significant (P = 0.0003)

Cys^6-[Tyr^10]secretin(1-27) (HSDGTCTSEYSRLREGARLQRLLQGLV; not fully specified; ends and bridges not checked; also: radioiodinated; UniProt P09683 28-54, looked up, variant F6C L10Y) [Cys^6-Sec, cysteine-containing secretin agonist probe, radioiodinated for cysteine trapping]
Intraloop labeling (A292C, ECL2, n = 3-5): 29.1 ±17.0 percentage
Overall labeling [1]: 24.9±17.2 percentage
Intraloop labeling (D282C, ECL2, n = 3-5): < 1 percentage
Overall labeling (D282C, ECL2, n = 3-5): < 1 percentage
Intraloop labeling (D364C, ECL3, n = 3-5): 17.1±8.2 percentage
Overall labeling (D364C, ECL3, n = 3-5, Cys5 significant (P < 0.0001)): 16.2±8.4 percentage
Intraloop labeling (E367C, ECL3, n = 3-5): 40.8±17.2 percentage
Overall labeling (E367C, ECL3, n = 3-5): 35.5±14.9 percentage
Intraloop labeling (E373C, ECL3, n = 3-5): 19.9±17.3 percentage
Overall labeling (E373C, ECL3, n = 3-5): 13.9±11.4 percentage
Overall labeling [2]: < 1 percentage
Intraloop labeling (F358C, ECL3, n = 3-5): 16.4±12.8 percentage
Overall labeling (F358C, ECL3, n = 3-5): 10.2±6.9 percentage
Intraloop labeling (F371C, ECL3, n = 3-5): 11.4±11.0 percentage
Intraloop labeling (F372C, ECL3, n = 3-5): 19.0±15.7 percentage
Overall labeling (F372C, ECL3, n = 3-5): 13.6±10.3 percentage
Overall labeling (G284C, ECL2, n = 3-5): < 1 percentage
Intraloop labeling (I294C, ECL2, n = 3-5): 10.5±9.5 percentage
Overall labeling (I294C, ECL2, n = 3-5): 10.3±9.5 percentage
Intraloop labeling (I297C, ECL2, n = 3-5): 30.1±18.4 percentage
Intraloop labeling (L374C, ECL3, n = 3-5): 94.8±5.2 percentage
Overall labeling [3]: 78.8±9.2 percentage
Intraloop labeling (M366C, ECL3, n = 3-5): 56.2±16.4 percentage
Overall labeling [4]: 48.0±17.7 percentage
Intraloop labeling (N289C, ECL2, n = 3-5): 15.8±14.5 percentage
Overall labeling (N289C, ECL2, n = 3-5): 15.7±14.5 percentage
Intraloop labeling (N291C, ECL2, n = 3-5): < 1 percentage
Overall labeling (N291C, ECL2, n = 3-5): < 1 percentage
Intraloop labeling (Q369C, ECL3, n = 3-5): 13.0±12.7 percentage
Intraloop labeling (V283C, ECL2, n = 3-5): 15.8±13.9 percentage
Overall labeling (V283C, ECL2, n = 3-5): 15.5±13.9 percentage
Intraloop labeling (W286C, ECL2, n = 3-5): 24.4±19.3 percentage
Overall labeling (W286C, ECL2, n = 3-5): 13.4±8.9 percentage
Intraloop labeling (W295C, ECL2, n = 3-5): 34.2±0.1 percentage
Overall labeling (W295C, ECL2, n = 3-5, Cys2, Cys5, Cys7 significant (P < 0.0001)): 34.1±17.2 percentage
Intraloop labeling (W296C, ECL2, n = 3-5): 80.2±19.8 percentage
Overall labeling [5]: 68.0±20.5 percentage
cysteine trapping in ECL3, in words: labeled ECL3 residues

Cys^7-[Tyr^10]secretin(1-27) (HSDGTFCSEYSRLREGARLQRLLQGLV; not fully specified; ends and bridges not checked; also: radioiodinated; UniProt P09683 28-54, looked up, variant T7C L10Y) [Cys^7-Sec, cysteine-containing secretin agonist probe, radioiodinated for cysteine trapping]
Intraloop labeling (A290C, ECL2, n = 3-5): < 1 percentage
Overall labeling (A290C, ECL2, n = 3-5): < 1 percentage
Intraloop labeling (A292C, ECL2, n = 3-5): < 1 percentage
Overall labeling [1]: < 1 percentage
Intraloop labeling (A359C, ECL3, n = 3-5): 85.3±8.6 percentage
Overall labeling (A359C, ECL3, n = 3-5, Cys7 significant (P = 0.0004)): 85.3±8.6 percentage
Intraloop labeling (A365C, ECL3, n = 3-5): 66.4±17.1 percentage
Overall labeling (A365C, ECL3, n = 3-5, Cys5 significant (P < 0.0001)): 66.4±17.1 percentage
Intraloop labeling (D282C, ECL2, n = 3-5): < 1 percentage
Overall labeling (D282C, ECL2, n = 3-5): < 1 percentage
Intraloop labeling (D287C, ECL2, n = 3-5): 15.7±15.6 percentage
Intraloop labeling (E363C, ECL3, n = 3-5): < 1 percentage
Overall labeling (E363C, ECL3, n = 3-5): < 1 percentage
Intraloop labeling (E367C, ECL3, n = 3-5): < 1 percentage
Overall labeling (E367C, ECL3, n = 3-5): < 1 percentage
Intraloop labeling (E373C, ECL3, n = 3-5): < 1 percentage
Overall labeling (E373C, ECL3, n = 3-5): < 1 percentage
Intraloop labeling (F279C, ECL2, % of highest labeling within loop, n = 4 (Cys2), 5 (Cys5, Cys6), 3 (Cys7)): < 1 percentage
Overall labeling [2]: < 1 percentage
Intraloop labeling (F358C, ECL3, n = 3-5): 21.6±20.7 percentage
Overall labeling (F358C, ECL3, n = 3-5): 21.6±20.7 percentage
Intraloop labeling (F360C, ECL3, n = 3-5): 23.9±23.4 percentage
Overall labeling (F360C, ECL3, n = 3-5): 23.9±23.4 percentage
Intraloop labeling (F372C, ECL3, n = 3-5): 24.8±24.7 percentage
Overall labeling (F372C, ECL3, n = 3-5): 24.8±24.7 percentage
Intraloop labeling (G284C, ECL2, n = 3-5): < 1 percentage
Overall labeling (G284C, ECL2, n = 3-5): < 1 percentage
Intraloop labeling (I288C, ECL2, n = 3-5): 82.9±8.6 percentage
Overall labeling (I288C, ECL2, n = 3-5, Cys5 and Cys7 significant (P < 0.0001)): 71.4±10.6 percentage
Intraloop labeling (I294C, ECL2, n = 3-5): < 1 percentage
Overall labeling (I294C, ECL2, n = 3-5): < 1 percentage
Intraloop labeling (I297C, ECL2, n = 3-5): < 1 percentage
Overall labeling (I297C, ECL2, n = 3-5): < 1 percentage
Intraloop labeling (I368C, ECL3, n = 3-5): < 1 percentage
Overall labeling (I368C, ECL3, n = 3-5): < 1 percentage
Intraloop labeling (L280C, ECL2, n = 3-5): < 1 percentage
Overall labeling (L280C, ECL2, n = 3-5): < 1 percentage
Intraloop labeling (L374C, ECL3, n = 3-5): 88.6±11.4 percentage
Overall labeling [3]: 88.6±11.4 percentage
Intraloop labeling (M366C, ECL3, n = 3-5): 55.6±22.3 percentage
Overall labeling [4]: 55.6±22.3 percentage
Intraloop labeling (N291C, ECL2, n = 3-5): < 1 percentage
Overall labeling (N291C, ECL2, n = 3-5): < 1 percentage
Intraloop labeling (P362C, ECL3, n = 3-5): < 1 percentage
Overall labeling (P362C, ECL3, n = 3-5): < 1 percentage
Intraloop labeling (Q369C, ECL3, n = 3-5): < 1 percentage
Overall labeling (Q369C, ECL3, n = 3-5): < 1 percentage
Intraloop labeling (S293C, ECL2, n = 3-5): < 1 percentage
Overall labeling (S293C, ECL2, n = 3-5): < 1 percentage
Intraloop labeling (S361C, ECL3, n = 3-5): < 1 percentage
Overall labeling (S361C, ECL3, n = 3-5): < 1 percentage
Intraloop labeling (V283C, ECL2, n = 3-5): < 1 percentage
Overall labeling (V283C, ECL2, n = 3-5): < 1 percentage
Overall labeling (W286C, ECL2, n = 3-5): < 1 percentage
Intraloop labeling (W295C, ECL2, n = 3-5): 92.5±7.5 percentage
Intraloop labeling (W296C, ECL2, n = 3-5): < 1 percentage
Overall labeling [5]: < 1 percentage
cysteine trapping in ECL3, in words: labeled ECL3 residues
